How the values were obtained:
Assay in all cases: relative viability (nuclei count vs DMSO), 5 days (fraction); higher = more cells survive
CAL-12T = tested on: CAL-12T
Method in brief: (§1)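 After 5 days of treatment, lung cancer cells in 1536-well plates were fixed and stained in a single step (final 0.05% Triton X-100, 1% formaldehyde, 1 ug/ml Hoechst) and their nuclei counted on 4× images. Treatment had been applied by pin tool the day after seeding as one drug alone or as a fixed anchor-drug dose with five library-drug doses (not always all listed) in √10 steps. Relative viability is the nuclei count of treated wells divided by that of vehicle wells, and values are medians of duplicate plates.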

NCI-H2023 = tested on: NCI-H2023
Method in brief: as §1

BEN = tested on: BEN
Method in brief: as §1

NCI-H1915 = tested on: NCI-H1915
Method in brief: as §1

NCI-H520 = tested on: NCI-H520
Method in brief: as §1

NCI-H2087 = tested on: NCI-H2087
Method in brief: as §1

NCI-H596 = tested on: NCI-H596
Method in brief: as §1

201T = tested on: 201T
Method in brief: as §1

NCI-H460 = tested on: NCI-H460
Method in brief: as §1

NCI-H1650 = tested on: NCI-H1650
Method in brief: as §1

NCI-H441 = tested on: NCI-H441
Method in brief: as §1

A-427 = tested on: A-427
Method in brief: as §1

LCLC-97TM1 = tested on: LCLC-97TM1
Method in brief: as §1

NCI-H1944 = tested on: NCI-H1944
Method in brief: as §1

NCI-H727 = tested on: NCI-H727
Method in brief: as §1

PC-3 [JPC-3] = tested on: PC-3 [JPC-3]
Method in brief: as §1

H3255 = tested on: H3255
Method in brief: as §1

NCI-H1651 = tested on: NCI-H1651
Method in brief: as §1

LC-2-ad = tested on: LC-2-ad
Method in brief: as §1

`Cc1sc2c(c1C)C(c1ccc(Cl)cc1)=N[C@@H](CC(=O)OC(C)(C)C)c1nnc(C)n1-2` [JQ1] + CC1(C)CCC(c2ccc(Cl)cc2)=C(CN2CCN(c3ccc(C(=O)NS(=O)(=O)c4ccc(N[C@H](CCN5CCOCC5)CSc5ccccc5)c(S(=O)(=O)C(F)(F)F)c4)cc3)CC2)C1 [Navitoclax] (partner 0.5 µM) showed a relative viability (CAL-12T; first compound 0.04 µM) of 1.12, a relative viability (CAL-12T; first compound 0.1265 µM) of 1.29 and a relative viability (CAL-12T; first compound 0.4 µM) of 0.701. For the same compound, the relative viability (CAL-12T; first compound 1.265 µM) was 0.295, the relative viability (CAL-12T; first compound 4 µM) was 0.408 and the relative viability (NCI-H2023; first compound 0.04 µM) was 0.98. It also gave a relative viability (NCI-H2023; first compound 0.1265 µM) of 0.915, a relative viability (NCI-H2023; first compound 0.4 µM) of 0.846 and a relative viability (NCI-H2023; first compound 1.265 µM) of 0.334. It also gave a relative viability (NCI-H2023; first compound 4 µM) of 0.369, a relative viability (BEN; first compound 0.04 µM) of 0.0812 and a relative viability (BEN; first compound 0.1265 µM) of 0.082. The relative viability (BEN; first compound 0.4 µM) was 0.0765, the relative viability (BEN; first compound 1.265 µM) was 0.0678 and the relative viability (BEN; first compound 4 µM) was 0.0582. It also gave a relative viability (NCI-H1915; first compound 0.04 µM) of 0.781, a relative viability (NCI-H1915; first compound 0.1265 µM) of 0.567 and a relative viability (NCI-H1915; first compound 0.4 µM) of 0.698. For the same compound, the relative viability (NCI-H1915; first compound 1.265 µM) was 0.419, the relative viability (NCI-H1915; first compound 4 µM) was 0.198 and the relative viability (NCI-H520; first compound 0.04 µM) was 1.1. For the same compound, the relative viability (NCI-H520; first compound 0.1265 µM) was 1.19, the relative viability (NCI-H520; first compound 0.4 µM) was 0.905 and the relative viability (NCI-H520; first compound 1.265 µM) was 0.404. The relative viability (NCI-H520; first compound 4 µM) was 0.297, the relative viability (NCI-H2087; first compound 0.04 µM) was 1.03 and the relative viability (NCI-H2087; first compound 0.4 µM) was 0.74. It also gave a relative viability (NCI-H2087; first compound 1.265 µM) of 0.552, a relative viability (NCI-H2087; first compound 4 µM) of 0.502 and a relative viability (NCI-H596; first compound 0.04 µM) of 1.17. For the same compound, the relative viability (NCI-H596; first compound 0.1265 µM) was 1.03, the relative viability (NCI-H596; first compound 0.4 µM) was 0.421 and the relative viability (NCI-H596; first compound 1.265 µM) was 0.236. For the same compound, the relative viability (NCI-H596; first compound 4 µM) was 0.23, the relative viability (201T; first compound 0.04 µM) was 1.23 and the relative viability (201T; first compound 0.1265 µM) was 0.977. It also gave a relative viability (201T; first compound 0.4 µM) of 1.15, a relative viability (201T; first compound 1.265 µM) of 0.842 and a relative viability (201T; first compound 4 µM) of 0.618. It also gave a relative viability (NCI-H460; first compound 0.04 µM) of 1.02, a relative viability (NCI-H460; first compound 0.1265 µM) of 0.671 and a relative viability (NCI-H460; first compound 0.4 µM) of 0.499. The relative viability (NCI-H460; first compound 1.265 µM) was 0.0782, the relative viability (NCI-H460; first compound 4 µM) was 0.0465 and the relative viability (NCI-H1650; first compound 0.04 µM) was 1.09. It also gave a relative viability (NCI-H1650; first compound 0.1265 µM) of 0.998, a relative viability (NCI-H1650; first compound 0.4 µM) of 0.655 and a relative viability (NCI-H1650; first compound 1.265 µM) of 0.24. It also gave a relative viability (NCI-H1650; first compound 4 µM) of 0.169, a relative viability (NCI-H441; first compound 0.04 µM) of 0.834 and a relative viability (NCI-H441; first compound 0.1265 µM) of 0.684. For the same compound, the relative viability (NCI-H441; first compound 0.4 µM) was 0.54, the relative viability (NCI-H441; first compound 1.265 µM) was 0.528 and the relative viability (NCI-H441; first compound 4 µM) was 0.408. The relative viability (A-427; first compound 0.04 µM) was 0.997, the relative viability (A-427; first compound 0.1265 µM) was 0.974 and the relative viability (A-427; first compound 0.4 µM) was 1. The relative viability (A-427; first compound 1.265 µM) was 0.854, the relative viability (A-427; first compound 4 µM) was 0.784 and the relative viability (LCLC-97TM1; first compound 0.1265 µM) was 0.329. For the same compound, the relative viability (LCLC-97TM1; first compound 0.4 µM) was 0.403, the relative viability (LCLC-97TM1; first compound 1.265 µM) was 0.175 and the relative viability (LCLC-97TM1; first compound 4 µM) was 0.152. It also gave a relative viability (NCI-H1944; first compound 0.04 µM) of 1.02, a relative viability (NCI-H1944; first compound 0.1265 µM) of 0.922 and a relative viability (NCI-H1944; first compound 0.4 µM) of 1.07. The relative viability (NCI-H1944; first compound 1.265 µM) was 0.762, the relative viability (NCI-H1944; first compound 4 µM) was 0.617 and the relative viability (NCI-H727; first compound 0.04 µM) was 0.436. The relative viability (NCI-H727; first compound 0.1265 µM) was 0.453, the relative viability (NCI-H727; first compound 0.4 µM) was 0.291 and the relative viability (NCI-H727; first compound 1.265 µM) was 0.209. It also gave a relative viability (NCI-H727; first compound 4 µM) of 0.252, a relative viability (PC-3 [JPC-3]; first compound 0.04 µM) of 0.781 and a relative viability (PC-3 [JPC-3]; first compound 0.1265 µM) of 0.877. It also gave a relative viability (PC-3 [JPC-3]; first compound 0.4 µM) of 0.942, a relative viability (PC-3 [JPC-3]; first compound 1.265 µM) of 0.644 and a relative viability (PC-3 [JPC-3]; first compound 4 µM) of 0.499. For the same compound, the relative viability (H3255; first compound 0.04 µM) was 0.495, the relative viability (H3255; first compound 0.1265 µM) was 0.441 and the relative viability (H3255; first compound 0.4 µM) was 0.566. For the same compound, the relative viability (H3255; first compound 1.265 µM) was 0.268, the relative viability (H3255; first compound 4 µM) was 0.258 and the relative viability (NCI-H1651; first compound 0.04 µM) was 0.928. It also gave a relative viability (NCI-H1651; first compound 0.1265 µM) of 0.819, a relative viability (NCI-H1651; first compound 0.4 µM) of 0.701 and a relative viability (NCI-H1651; first compound 1.265 µM) of 0.525. It also gave a relative viability (NCI-H1651; first compound 4 µM) of 0.439, a relative viability (LC-2-ad; first compound 0.04 µM) of 0.486 and a relative viability (LC-2-ad; first compound 0.1265 µM) of 0.58. The relative viability (LC-2-ad; first compound 0.4 µM) was 0.376, the relative viability (LC-2-ad; first compound 1.265 µM) was 0.196 and the relative viability (LC-2-ad; first compound 4 µM) was 0.175.

— the supplement of paper PMC10307832
